Holding throughout (format): biochemical
One assay addresses T1, ALDH2*1/*1 (Homo sapiens, UniProt P05091).
T1 construct: His-tag (N); made in house; host or cells: E. coli BL21 (pTrcHis vector)
T1 sequence (P05091 18-517): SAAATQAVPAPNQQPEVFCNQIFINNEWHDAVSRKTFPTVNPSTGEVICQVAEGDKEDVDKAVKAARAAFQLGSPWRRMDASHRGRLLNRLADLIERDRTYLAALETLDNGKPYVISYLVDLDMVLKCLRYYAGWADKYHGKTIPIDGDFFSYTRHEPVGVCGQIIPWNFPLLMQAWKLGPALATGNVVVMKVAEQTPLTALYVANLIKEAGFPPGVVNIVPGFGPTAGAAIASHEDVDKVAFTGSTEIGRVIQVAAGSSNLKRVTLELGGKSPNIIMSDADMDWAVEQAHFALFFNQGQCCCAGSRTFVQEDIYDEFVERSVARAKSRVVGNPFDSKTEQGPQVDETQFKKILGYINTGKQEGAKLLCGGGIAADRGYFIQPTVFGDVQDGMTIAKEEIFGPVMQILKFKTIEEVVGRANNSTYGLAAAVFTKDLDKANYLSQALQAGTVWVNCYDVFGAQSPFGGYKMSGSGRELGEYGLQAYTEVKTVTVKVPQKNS
Description: ALDH2 enzymatic activity, NADH accumulation at 340 nm, acetaldehyde substrate, wild type. The conditions noted are these: relative to baseline enzymatic activity (100%); for activity at 2.5 µM: 2.5 μM compound; for activity at 5 µM: 5 μM compound; for activity at 10 µM: 10 μM compound; for activity at 20 µM: 20 μM compound. The protocol:
(§1) ALDH2 catalyzes the oxidative reaction of substrate acetaldehyde to acetic acid using NAD^+ as a cofactor. Enzymatic activity, or catalytic rate, of aldehyde dehydrogenase (ALDH2) are measured spectrophotometrically at UV wavelength λ340 nm by the accumulation of reduced product NADH derived from NAD^+. Absorbance at λ340 nm is quantitatively proportional to the amount of NADH being produced over time (6.22 O.D. unit=1 mmol of NADH, measured in a 1-cm width standard cuvette). This method is well-established in the literature [e.g. Rex et al., Alcohol Clin. Exp. Res. 9, 147 (1985)].
(§2) ALDH2 catalyzes the oxidative reaction of substrate acetaldehyde to acetic acid using NAD^+ as a cofactor. Enzymatic activity, or catalytic rate, of aldehyde dehydrogenase (ALDH2) can be measured spectrophotometrically at UV wavelength λ340 nm by the accumulation of reduced product NADH derived from NAD^+. Absorbance at λ340 nm is quantitatively proportional to the amount of NADH being produced over time (6.22 O.D. unit=1 mmol of NADH, measured in a 1-cm width standard cuvette). This method is well-established in the literature [e.g. Rex et al., Alcohol Clin. Exp. Res. 9, 147 (1985)].
(§3) Cloning, expression and purification of human ALDH2 wild type and ALDH2*2 recombinant mutant enzymes: Full-length wild type human ALDH2 cDNA was purchased from ATCC (No. MGC-1806. GenBank ID: BC002967). The 18-amino acid mitochondria transport signal sequence was removed by PCR and cloned into the NheI/HindIII sites of a His-tag vector, pTrcHis, using standard molecular cloning techniques. The human ALDH2* cDNA construct containing the Asian E487K mutation was obtained by site-directed mutagenesis to create the E487K substitution of the wild type ALDH2. Both human clones were designed to express a recombinant protein with the His-tag at the N-terminus of the protein. For the co-expression experiments of human ALDH2 wild type and ALDH2*2 heterotetramers, a wild type ALDH2 gene and a ALDH2 E487K gene were inserted separately into the two multiple cloning sites of pETDuet-1 vector. (Novagen, CA, USA). All the vectors were transformed into BL21 E. coli host cells and subjected to 0.5 mM IPTG induction for protein expression at 30° C. Purifications of the recombinant proteins by affinity nickel columns (HisTrap, GE Healthy Science, USA) were carried out using standard protocols according to manufacturer's instructions (Novagen, USA).
(§4) ALDH2 catalyzes the oxidative reaction of substrate acetaldehyde to acetic acid using NAD^+ as a cofactor. Enzymatic activity, or catalytic rate, of aldehyde dehydrogenase (ALDH2) can be measured spectrophotometrically at UV wavelength λ340 nm by the accumulation of reduced product NADH derived from NAD^+. Because compounds of formula (I) are considered to be agonists or “activators” of ALDH2 the enzymatic activity measured will exceed 100% of the baseline enzymatic activity of the enzyme in its normal activation state. As the concentration of the compounds of formula (I) decreases from 20 micromolar to 0.16 micromolar in the presence of ALDH, a decrease in the activation of enzymatic activity is observed for the wild-type ALDH2*1/*1 and the heterozygous form ALDH2*1/*2.

A further assay deals with T2, ALDH2*1/*2 (Homo sapiens, UniProt P05091, E504K).
T2 construct: His-tag; made in house; host or cells: E. coli BL21 (pETDuet-1 co-expression)
T2 sequence (P05091 18-517): T1 sequence (P05091 18-517)
T2 sequence (P05091 18-517 E504K): T1 sequence (P05091 18-517) with E487K
The assay can be described thus: ALDH2 enzymatic activity, NADH accumulation at 340 nm, acetaldehyde substrate, heterozygous form. The conditions noted are these: relative to baseline enzymatic activity (100%); for activity at 2.5 µM: 2.5 μM compound; for activity at 5 µM: 5 μM compound; for activity at 10 µM: 10 μM compound; for activity at 20 µM: 20 μM compound. Here is the method: as §1, §2, §3, §4

The target in a further assay is T3, ALDH2 (Homo sapiens, UniProt P05091).
T3 construct: His-tag (N); made in house; host or cells: E. coli BL21
T3 sequence (P05091 18-517): T1 sequence (P05091 18-517)
The assay can be described thus: ALDH2 activity with 20 μM of the compound (Table 3). The conditions noted are these: 20 μM compound. The essentials:
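Compound was tested at 20 μM. ALDH2 oxidation of acetaldehyde with NAD+ cofactor was followed spectrophotometrically as NADH accumulation at 340 nm. Activity is expressed relative to the enzyme's baseline activity, taken as 100%.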

Numbering of substitutions follows the chain as printed.

On to `COc1ccc(CNC(=O)c2cc(-c3ccncc3CO)ccc2OCC2CC2)cc1F` [AC9], for which, on ALDH2*1/*1, the activity at 2.5 µM came to 218%, the activity at 5 µM was 276%, the activity at 10 µM turned out to be 354% and the activity at 20 µM was 376%. In addition, on ALDH2*1/*2, the activity at 2.5 µM turned out to be 224%, the activity at 5 µM was found to be 287%, the activity at 10 µM came to 317% and the activity at 20 µM was 402%. Also, the activity at 20 µM at ALDH2 is over 250%.

As to `COc1ccc(CNC(=O)c2cc(-c3ccsc3CO)ccc2OCC2CC2)cc1F` [AC27], on ALDH2*1/*1, the activity at 2.5 µM worked out at 293%, the activity at 5 µM was determined as 315%, the activity at 10 µM was found to be 379% and the activity at 20 µM worked out at 364%. In addition, at ALDH2*1/*2, the activity at 2.5 µM worked out at 323%, the activity at 5 µM came out at 420%, the activity at 10 µM was 419% and the activity at 20 µM was 410%. Besides, at ALDH2, the activity at 20 µM was over 250%.

Consider `COc1ccc(CNC(=O)c2cc(-c3ccncc3CO)cnc2OCC2CC2)cc1F` [AC12], for which, on ALDH2*1/*1, the activity at 2.5 µM came to 166%, the activity at 5 µM is 211%, the activity at 10 µM is 305% and the activity at 20 µM is 379%. In addition, at ALDH2*1/*2, the activity at 2.5 µM stood at 179%, the activity at 5 µM was 236%, the activity at 10 µM turned out to be 286% and the activity at 20 µM was determined as 350%. Also, on ALDH2, the activity at 20 µM was over 250%.

On to `COc1ccc(CNC(=O)c2cc(-c3cnccc3CO)ccc2OCC2CC2)cc1F` [AC5], for which, at ALDH2*1/*1, the activity at 2.5 µM came to 266%, the activity at 5 µM is 330%, the activity at 10 µM was found to be 352% and the activity at 20 µM is 487%. Further, on ALDH2*1/*2, the activity at 2.5 µM was found to be 318%, the activity at 5 µM was 382%, the activity at 10 µM stood at 428% and the activity at 20 µM is 504%. Moreover, on ALDH2, the activity at 20 µM is over 250%.

On to `COc1ccc(CNC(=O)c2cc(-c3cnccc3CO)cnc2OCC2CC2)cc1F` [AC10], for which, on ALDH2*1/*1, the activity at 2.5 µM was 172%, the activity at 5 µM amounted to 238%, the activity at 10 µM was determined as 346% and the activity at 20 µM worked out at 414%. Moreover, on ALDH2*1/*2, the activity at 2.5 µM amounted to 239%, the activity at 5 µM turned out to be 321%, the activity at 10 µM came to 388% and the activity at 20 µM came out at 531%. Besides, the activity at 20 µM at ALDH2 was over 250%.

On to `COc1ccc(CNC(=O)c2cc(-c3cccnc3CO)cnc2OCC2CC2)cc1F` [AC11], for which, on ALDH2*1/*1, the activity at 2.5 µM was found to be 123%, the activity at 5 µM stood at 135%, the activity at 10 µM was determined as 169% and the activity at 20 µM amounted to 211%. Besides, on ALDH2*1/*2, the activity at 2.5 µM was 125%, the activity at 5 µM was found to be 158%, the activity at 10 µM stood at 185% and the activity at 20 µM was determined as 248%. The activity at 20 µM at ALDH2 was in the range of 150 to 250%.

With `COc1ccc(CNC(=O)c2cc(-c3ccccc3CO)cnc2OCC2CC2)cc1F` [AC1, 2-(cyclopropylmethoxy)-N-(3-fluoro-4-methoxybenzyl)-5-(2-(hydroxymethyl)phenyl)nicotinamide], on ALDH2*1/*1, the activity at 2.5 µM amounted to 175%, the activity at 5 µM is 242%, the activity at 10 µM came to 288% and the activity at 20 µM turned out to be 412%. In addition, at ALDH2*1/*2, the activity at 2.5 µM amounted to 220%, the activity at 5 µM is 294%, the activity at 10 µM turned out to be 383% and the activity at 20 µM is 453%. The activity at 20 µM at ALDH2 is over 250%.

As for `COc1ccc(CNC(=O)c2cc(-c3cccc(F)c3CO)ccc2OCC2CC2)cc1F` [AC21], on ALDH2*1/*1, the activity at 2.5 µM is 161%, the activity at 5 µM was 209%, the activity at 10 µM is 272% and the activity at 20 µM came out at 370%. Moreover, at ALDH2*1/*2, the activity at 2.5 µM was determined as 110%, the activity at 5 µM came to 198%, the activity at 10 µM stood at 247% and the activity at 20 µM is 250%. Further, on ALDH2, the activity at 20 µM was over 250%.

As for `COc1ccc(CNC(=O)c2cc(-c3sccc3CO)cnc2OCC2CC2)cc1F` [AC26, 2-(cyclopropylmethoxy)-N-(3-fluoro-4-methoxybenzyl)-5-(3-(hydroxymethyl)thiophen-2-yl)nicotinamide], on ALDH2*1/*1, the activity at 2.5 µM stood at 199%, the activity at 5 µM amounted to 235%, the activity at 10 µM was found to be 352% and the activity at 20 µM stood at 394%. Also, on ALDH2*1/*2, the activity at 2.5 µM is 188%, the activity at 5 µM turned out to be 238%, the activity at 10 µM worked out at 261% and the activity at 20 µM is 281%. In addition, the activity at 20 µM at ALDH2 is over 250%.

Turning to `COc1ccc(CNC(=O)c2cc(-c3cscc3CO)ccc2OCC2CC2)cc1F` [AC29], at ALDH2*1/*1, the activity at 2.5 µM turned out to be 283%, the activity at 5 µM is 334%, the activity at 10 µM stood at 422% and the activity at 20 µM amounted to 445%. On ALDH2*1/*2, the activity at 2.5 µM amounted to 260%, the activity at 5 µM is 349%, the activity at 10 µM was 392% and the activity at 20 µM was determined as 423%. In addition, the activity at 20 µM at ALDH2 is over 250%.

Turning to `COc1ccc(CNC(=O)c2cc(-c3ncccc3CO)cnc2OCC2CC2)cc1F` [AC8], at ALDH2*1/*1, the activity at 2.5 µM came out at 164%, the activity at 5 µM is 223%, the activity at 10 µM worked out at 319% and the activity at 20 µM is 370%. At ALDH2*1/*2, the activity at 2.5 µM worked out at 221%, the activity at 5 µM stood at 299%, the activity at 10 µM came out at 328% and the activity at 20 µM was determined as 479%. Further, on ALDH2, the activity at 20 µM is over 250%.

The record behind these values is US9879036B2, “Mitochondrial aldehyde dehydrogenase-2 binding compounds and methods of use thereof” (Aviv Therapeutics, Inc., priority 2014, dated 2018).
